Several values for one entry are separate records, joined by “and”; a condition that tells them apart may be missing. Identical values can stand only once. Entries after “also recorded” stand apart in the source; their conditions may differ. Like-named read-outs stand apart in the source and are kept apart here. Where a SMILES comes first, the peptide text is derived from it.
Legend:
human LOX-12 (human) [1] = target: T1, human LOX-12 (human) (UniProt P18054)
T1 sequence: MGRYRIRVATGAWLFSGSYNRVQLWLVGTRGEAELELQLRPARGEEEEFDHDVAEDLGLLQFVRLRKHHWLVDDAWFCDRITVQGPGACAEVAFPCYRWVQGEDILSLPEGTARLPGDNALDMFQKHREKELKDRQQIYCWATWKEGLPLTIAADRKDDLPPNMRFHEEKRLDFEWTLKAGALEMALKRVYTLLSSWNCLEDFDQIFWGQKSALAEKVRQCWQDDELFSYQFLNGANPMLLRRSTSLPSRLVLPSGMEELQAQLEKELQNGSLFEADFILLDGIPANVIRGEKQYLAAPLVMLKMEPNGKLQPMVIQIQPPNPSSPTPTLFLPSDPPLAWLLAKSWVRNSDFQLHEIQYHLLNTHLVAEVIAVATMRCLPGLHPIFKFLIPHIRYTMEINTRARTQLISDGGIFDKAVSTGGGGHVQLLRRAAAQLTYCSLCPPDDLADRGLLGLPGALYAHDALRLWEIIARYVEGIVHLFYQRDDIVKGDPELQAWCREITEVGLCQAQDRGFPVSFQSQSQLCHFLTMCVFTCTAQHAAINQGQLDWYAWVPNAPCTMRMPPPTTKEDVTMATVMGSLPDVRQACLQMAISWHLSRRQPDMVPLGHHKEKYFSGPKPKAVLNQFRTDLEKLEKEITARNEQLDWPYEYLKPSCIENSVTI

MCF-7 = conditions: MCF-7, MTT, 72 h
Method: (§1) Cytotoxic effect of LOX-12 inhibitory peptides was analyzed on MCF-7 (ER+) and MDA-MB-231 (ER+) breast cancer cell lines by MTT [3-(4, 5-dimethylthiazol-2-yl)-2, 5-diphenyltetrazolium bromide] dye reduction assay. Briefly, 3×10^3 cells/100 µl media were seeded in 96-well plates 24 h before the experiment. The cells were then incubated with different concentrations of the peptides for 24, 48 and 72 h as indicated. The cells were treated with DMSO (same concentration as used to solubilise the peptide) which was then subtracted from all the cytotoxic values.10 µl/well MTT-solution (10 mg/ml in PBS) was then added and plates were further incubated for 3 h at 37°C. The formazan crystals formed were dissolved by adding 100 µl/well of dimethyl sulfoxide (DMSO). Absorbance was measured by a microplate reader at 570 nm with a reference filter 650 nm. 100 µl of medium with 10 µl of MTT stock-solution and 100 µl of DMSO was used as a blank solution to correct the background. The data obtained was presented as percentage viability in the best-fit (linear) dose response curve. The IC50 values at 95% confidence intervals was calculated for all cell lines. Each concentration was used in triplicate. The peptide AIRS was used as a negative control.
(§2) MCF-7 cells were treated with 0–150 µM (0.05% DMSO as a vehicle control) and MDA-MB-231 was treated with 0–500 µM (0.05% DMSO as a vehicle control) of the LOX-12 inhibitory peptides for 24, 48 and 72 h to perform the cytotoxic activity.

LOX-12 [2] = target: T2, LOX-12 (Homo sapiens, UniProt P18054); assay: SPR binding of peptides to immobilized His-LOX-12 (BIAcore 2000); conditions: His-LOX-12 on Ni2+-NTA chip, analyte 25, 50, 75 µM, flow 10 µl/min, BIA evaluation 3.0, read-out: Dissociation constant KD
T2 construct: made in house; host or cells: E. coli BL21 codon+ (pET28a)
T2 sequence (P18054 1-663): T1 sequence

[3] = system: Ehrlich's Ascites Tumor cell line (EAT) (murine breast carcinoma); assay: Antitumor activity in Swiss albino mice implanted with EAT tumor cell line; assay type: in vivo
Method: In-vivo animal experimentation of peptide for anticancer activity was done using mice model. Swiss albino mice were obtained from Central animal facility, AIIMS at 55–65 days of age. The animals were housed in polycarbonated cages, bedded with husk. The animal facility was environmentally controlled; mice were maintained at normal room temperature with suitable relative humidity and 12 h light, 12 h dark cycle. Animals were fed chow food and purified water ad libitum throughout the study. Animals were randomized into 5mice per cage in 3 groups (Group I, II and III) for the study.
Ehrlich's Ascites Tumor cell line (EAT) (murine breast carcinoma), was used for tumor induction. The cell line was maintained in-vivo by passaging weekly intraperitonealy (i.p) from mice to mice. For tumor induction, 14 million cells approximately 150 µl volumes was injected to the animal in a group subcutaneously on the dorsal side of the body (back) and kept under observation for tumor onset.
Tumor size was recorded by vernier calipers and tumor volume was calculated using the formula: V = 0.5×L×W^2, where L is the length (long axis) and W is the width (short axis).
In Group I (control, untreated) only tumor cell line was administered. In group II, YWCS peptide was administered when the tumor volume reached 0.22±0.10 cm^3 on day 10, at a dose of […] intravenously (i.v) per mouse once daily for 20 days from day 11 to day 30. In group III, same concentration of peptide was injected intravenously (i.v) simultaneously after injecting tumor cells subcutaneously on day one. During experimental period mice were under observation till sacrificed.

LOX-12 [4] = target: T2, LOX-12; assay: Kinetic assay of LOX-12 inhibition (Michaelis-Menten, competitive Ki); assay type: biochemical
Method: For kinetic assay, the above experiment was done with four different concentrations of peptides (25–100 µM). For each concentration of peptide the experiment was repeated with six different concentrations (20–120 µM) of substrate, arachidonic acid. The enzyme concentration was constant (1.0 µM) throughout the assay. The competitive kinetic constant (Ki) was calculated graphically using the Michaelis-Menton equation in graphpad prism software. The graph of activity vs. concentration of arachidonic acid was plotted.
Competitive kinetic constant of the best peptide YWCS was calculated using graphpad prism software.

MDA-MB-231 cells = assay: Annexin-V binding apoptosis assay by flow cytometry, MDA-MB-231; assay type: cell-based, human; conditions: 72 h, annexin-V/PI flow cytometry
MDA-MB-231 = conditions: 72 h; for percentage of cell viability: MDA-MB-231, MTT
Method: as §1, §2

LOX-12 [5] = target: T2, LOX-12; assay: Inhibition of human LOX-12 activity, spectrophotometric screen; assay type: biochemical; conditions: LOX-12 incubated with peptide 30 min; arachidonic acid, 0.2% Tween-20, 50 mM potassium phosphate pH 7.2; absorbance 269 nm; average of triplicates; inhibitor concentration not given
Method: For inhibition study, the human LOX-12 was incubated with peptide for 30 min, which was then added to the reaction buffer containing arachidonic acid (substrate), 0.2% Tween-20, 50 mM potassium phosphate buffer pH 7.2. The change in absorbance was monitored at 269 nm and the percentage of inhibition was calculated. A control reaction was always carried out without any peptide inhibitor to ensure the activity of protein under experimental conditions.
The activity assay for LOX-12 in presence of 10 different peptides with substrate was performed by using spectrophotometer. The assay was performed at 269 nm which gives the absorption maxima for the product LTB4.

human red blood cells = assay: Hemolysis of human red blood cells; assay type: cell-based; conditions: concentration upto 358 µM; hRBC 1% (v/v) in PBS pH 7.0, 1 h at 37°C, absorbance 541 nm, triplicate
Method: The effect of peptide on hemolysis was determined by using human red blood cells (hRBC from volunteer). The freshly collected hRBC were centrifuged for 10 mins to remove the buffy coat and washed with phosphate buffered saline (PBS: 35 mM Na2HPO4, pH 7.0 and 150 mM NaCl). 100 µl of the hRBC (suspended in 1% (v/v) in PBS) and 10 µl peptide solution were added into the sterile 96 well plates in triplicate. The plates were incubated for 1 h at 37°C and centrifuged at 1000× g for 5 mins. The supernatant were transferred to fresh 96 well plates, where hemoglobin released was monitored by measuring the absorbance spectrophotometrically at 541 nm. Similar steps were carried out for Gentamycin, as a control. The percentage of hemolysis (determined in PBS and 0.1% Triton X-100) was calculated from the standard graph which was plotted with % hemolysis of prepared RBCs vs optical densities.
The haemolytic activity of the peptide was determined to ensure the toxicity to erythrocytes using human RBCs. The concentration upto 358 µM of the peptide lysed only 22% human erythrocytes ( Figure 2 ).

MCF-7 cells = assay: Annexin-V binding apoptosis assay by flow cytometry, MCF-7; assay type: cell-based, human; conditions: 72 h, annexin-V/PI flow cytometry
Method: The frequency of apoptosis in MCF7 cells and MDA-MB-231 by the treatment with YWCS was assayed by annexin-V binding assay. Briefly, MCF7 cells and MDA-MB-231 were pulsed with the peptide for 72 h. After termination of the culture, cells were stained with annexin-V apoptosis detection kit (Biolegend) according to the manufacturer's instructions. The cells were washed twice with PBS, and resuspended in annexin-V binding buffer. To the cell suspension, 5 µl of FITC-conjugated annexin-V (Biolegend) and 10 µl of propidium iodide (PI) (50 µg/ml) solution were added and further incubated for 15 min at room temperature. About 10,000 events were acquired in FACS Canto flow cytometer (Becton–Dickinson, USA). The frequency of annexin-positive (apoptotic) cells was determined using BD FACSDiva software.
The apoptotic activity of the peptide YWCS was performed using annexin-V binding assay. Apoptosis induction was observed as early as 72 h.

human LOX-12 (human) [6] = target: T1, human LOX-12 (human); assay: enzyme inhibition kinetics (spectrophotometric); 1.0 µM LOX-12 incubated with peptide (25-100 µM) for 30 min; arachidonic acid 20-120 µM, 0.2% Tween-20, 50 mM potassium phosphate pH 7.2; absorbance at 269 nm; competitive Ki from the Michaelis-Menten equation (GraphPad Prism)
human LOX-12 (human) [7] = target: T1, human LOX-12 (human); remark: listed apart in the source

Molecule: WKS (peptide)
- % inhibition of LOX-12 enzyme activity (arachidonic acid substrate, absorbance at 269 nm) (human LOX-12 (human) [1]): 53.2%

Molecule: N[C@@H](Cc1ccc(O)cc1)C(=O)N[C@@H](Cc1c[nH]c2ccccc12)C(=O)N[C@@H](CS)C(=O)N[C@@H](CO)C(=O)O [YWCS] (H-YWCS-OH)
- percentage cell viability (MCF-7; 25 µM): 88.6%
- percentage cell viability (MCF-7; 50 µM): 85.7%
- percentage cell viability (MCF-7; 100 µM): 31.2%
- percentage cell viability (MCF-7; 150 µM): 21.1%
- IC50 (MCF-7; read-out: IC50 (cell viability), triplicate): 75 µM
- Kd (LOX-12 [2]): 33.9 nM
- Tumor volume, Day 20 ([3]; Group II, 200 µmol i.v. per mouse once daily from day 11 to day 30, control 2.09±0.06): 1.62±0.49 cm^3
- Tumor volume, Day 30 ([3]; Group II, 200 µmol i.v. per mouse once daily from day 11 to day 30, control 4.5±0.24): 3.04±1.06 cm^3
- Size of liver and spleen in sacrificed animals ([3]; Group II, peptide treated for 20 days, control Group I showed the same): liver and spleen enlargement
- Tumor volume, Day 20 ([3]; Group III, 200 µmol peptide i.v. simultaneously after injecting EAT cells s.c. on day one): No tumor was observed; also recorded: No tumor onset
- Mode of inhibition (LOX-12 [4]; linearised analysis of Michaelis-Menten data, in presence of substrate arachidonic acid): competitive mode of inhibition
- Ki (LOX-12 [4]; peptide 25-100 µM, arachidonic acid 20-120 µM, enzyme 1.0 µM, Michaelis-Menten fit in graphpad prism, read-out: Competitive kinetic constant Ki): 7.25 µM
- mean percentage apoptotic cells (MDA-MB-231 cells; MDA-MB-231, 350 µM): 15.0±1.2%
- mean percentage apoptotic cells (MDA-MB-231 cells; MDA-MB-231, 400 µM): 20.8% and 20.8±3.2%
- mean percentage apoptotic cells (MDA-MB-231 cells; MDA-MB-231, 450 µM): 22.1±1.5%
- IC50 (MDA-MB-231): 400 µM
- percentage of cell viability (MDA-MB-231; 50 µM): 92%
- percentage of cell viability (MDA-MB-231; 100 µM): 87.46%
- percentage of cell viability (MDA-MB-231; 150 µM): 80.36%
- percentage of cell viability (MDA-MB-231; 200 µM): 72.51%
- percentage of cell viability (MDA-MB-231; 350 µM): 54.76%
- percentage of cell viability (MDA-MB-231; 400 µM): 48.19%
- percentage of cell viability (MDA-MB-231; 500 µM): 43.07%
- % inhibition (LOX-12 [5]): 86.1%
- Percentage of hemolysis of human erythrocytes (human red blood cells): 22%
- mean percentage apoptotic cells (MCF-7 cells; MCF-7, 50 µM): 41.2±5.8%
- mean percentage apoptotic cells (MCF-7 cells; MCF-7, 75 µM): 49.8% and 49.8±6.5%
- mean percentage apoptotic cells (MCF-7 cells; MCF-7, 100 µM): 58.3±7.5%

Molecule: YWG (peptide)
- % inhibition of LOX-12 enzyme activity (arachidonic acid substrate, absorbance at 269 nm) (human LOX-12 (human) [1]): 71.6%

Molecule: YW (peptide)
- % inhibition of LOX-12 enzyme activity (arachidonic acid substrate, absorbance at 269 nm) (human LOX-12 (human) [1]): 73.2%

Molecule: O=c1cc(-c2ccccc2)oc2cc(O)c(O)c(O)c12 [Baicalein, reference compound]
- % inhibition (LOX-12 [5]): 85.1%

Molecule: FYS (peptide)
- % inhibition of LOX-12 enzyme activity (arachidonic acid substrate, absorbance at 269 nm) (human LOX-12 (human) [1]): 79.8%

Molecule: WFC (peptide)
- % inhibition of LOX-12 enzyme activity (arachidonic acid substrate, absorbance at 269 nm) (human LOX-12 (human) [1]): 72.1%

Molecule: AIYW
- % inhibition (LOX-12 [5]): 69.3%

Molecule: FWY (peptide)
- % inhibition of LOX-12 enzyme activity (arachidonic acid substrate, absorbance at 269 nm) (human LOX-12 (human) [1]): 80.4%

Molecule: WFA (peptide)
- % inhibition of LOX-12 enzyme activity (arachidonic acid substrate, absorbance at 269 nm) (human LOX-12 (human) [1]): 73.5%

Molecule: FWCS
- % inhibition (LOX-12 [5]): 74.2%

Molecule: FWCS
- % inhibition of LOX-12 enzyme activity (arachidonic acid substrate, absorbance at 269 nm) (human LOX-12 (human) [1]): 74.2%

Molecule: YWCS
- Ki (human LOX-12 (human) [6]): 7.25 µM
- % inhibition of LOX-12 enzyme activity (arachidonic acid substrate, absorbance at 269 nm) (human LOX-12 (human) [7]): 80%
- % inhibition of LOX-12 enzyme activity (arachidonic acid substrate, absorbance at 269 nm) (human LOX-12 (human) [1]): 86.1%

Molecule: AIYW
- % inhibition of LOX-12 enzyme activity (arachidonic acid substrate, absorbance at 269 nm) (human LOX-12 (human) [1]): 69.3%

Reference: publication PMC3285689, “Structure Based Design and Synthesis of Peptide Inhibitor of Human LOX-12: In Vitro and In Vivo Analysis of a Novel Therapeutic Agent for Breast Cancer” (PLoS ONE, 2012)
